Data as given in patent US5095038A, “Carbocyclic compounds useful as leukotriene antagonists” (ICI Americas Inc., priority 1989, dated 1992).

Target: T1, LTD4 /E4 receptors (Cavia porcellus, UniProt Q2NNR5)
T1 construct: membrane fractions, containing the LTD4 /E4 receptors, are prepared from guinea-pig lung parenchyma; from tissue; host or cells: guinea-pig lung parenchyma membrane fractions
T1 sequence (Q2NNR5 1-340): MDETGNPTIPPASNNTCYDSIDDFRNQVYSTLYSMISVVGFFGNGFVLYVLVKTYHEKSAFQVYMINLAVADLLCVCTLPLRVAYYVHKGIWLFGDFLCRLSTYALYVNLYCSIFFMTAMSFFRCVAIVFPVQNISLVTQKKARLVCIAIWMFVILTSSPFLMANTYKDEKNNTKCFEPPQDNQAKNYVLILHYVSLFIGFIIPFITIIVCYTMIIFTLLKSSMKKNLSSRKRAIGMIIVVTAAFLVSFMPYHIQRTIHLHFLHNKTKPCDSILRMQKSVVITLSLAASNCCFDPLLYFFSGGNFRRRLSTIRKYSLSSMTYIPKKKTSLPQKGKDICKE
Assay: receptor-ligand binding assay (3H-LTD4)
Conditions: membrane fractions from guinea-pig lung parenchyma, 1nM 3H-LTD4, 30 minutes at 22° C.; Ki from IC50 by Cheng-Prusoff
Experimental: According to this procedure, membrane fractions, containing the LTD4 /E4 receptors, are prepared from guinea-pig lung parenchyma and incubated for 30 minutes at 22° C. with 1nM ^3 H-LTD4 in the absence or presence of tested antagonist. Specific binding, determined under conditions that prevent enzymatic metabolism of ^3 H-LTD4, is the net result of total ^3 H-LTD4 binding minus nonspecific binding determined in the presence of 1-2000 fold excess unlabelled LTD . Each assay is done in duplicate and results (Ki values) are typically a mean of several such determinations in individual receptor batches.
The % inhibition by a tested antagonist, relative to control binding (vehicle alone), is expressed as a fraction of log[antagonist] concentration (in molar units) and the half-maximal inhibition (IC50) determined by computerized non-linear least-square analysis. The binding constant (Ki) is then calculated from IC50 by the Cheng-Prusoff equation: [formula] where [L] is ^3 H-LTD4 concentraton and Kd is the affinity constant of LTD4 to this receptor, determined separately for each batch. (Biochem. Pharmacol. 22: 3099-3108, 1973).

Ki: 3.16 nM
Structure (SMILES): CCC(C)CNC(=O)c1ccc2cccc(Cc3ccc(C(=O)NS(=O)(=O)c4ccccc4C)cc3OC)c2c1 (stereo not shown) [Example 10, 3-Methoxy-4-[7-(2-methylbutylcarbamoyl)naphth-1-ylmethyl]-N-(2-methylphenylsulfonyl)benzamide]
